Measured values reported in US8889156B2, “Calcium-binding agents induce hair growth and/or nail growth” (priority 2009, dated 2014).
Square brackets hold non-standard residues; d marks the D form. Ends that are not written are not given here. pS = N[C@@H](COP(=O)(O)O)C(=O)O

What was measured:
[1] = HA binding assay (pulldown of fluorescein-labeled peptides, Langmuir isotherm fit); settings: for Nmax (maximum monolayer surface concentration) / KA (binding affinity for HA): fit of Langmuir equation; for KA (binding affinity for HA): fluorescein-labeled peptide 0-100 μM, 0.3 mg HA nanocrystals
Experimental: Fluorescein-labeled DSS-containing peptides of various lengths were subjected to pulldown assays as follows: Samples containing varying concentrations of fluorescein-labeled peptide (0-100 μM) and a fixed amount (0.3 mg) of HA nanocrystals with a specific surface area of 100 m^2/g (Berkeley Advanced Biomaterials, Berkeley, Calif.) were prepared. Measurements were taken of the absorbance of the labeled peptide at 488 nm (the peak absorbance of the fluorescein label) before and after exposure to the HA. The amount of peptide bound was calculated by comparing the ratio of the final (Af) and initial (Ai) absorbances to the initial concentration (C0) [Cbound=(Af/Ai)C0]. Plots were generated of the amount of peptide bound per meter squared of HA surface area vs. concentration of unbound peptide at equilibrium. The resulting isotherms were fit to the Langmuir isotherm, x/m=(KANmaxCeq)/(1+KACeq), where x/m represents the molar amount of peptide bound per unit of HA surface area, KA is the affinity constant of the peptide for the HA surface (L/Mol), Nmax is the maximum surface concentration (mol/m^2), and Ceq is the molar concentration of unbound peptide at equilibrium (Calis et al. (1995) Pharm Res., 12: 1072-1076).
In order to quantitatively assess the strength of the DSS-HA interaction as well as to determine the roles of peptide length and sequence on binding, fluorescein-labeled, DSS-containing peptides of various lengths were subjected to pulldown assays as described in “Materials and Methods.”
The experimental data were fit to the Langmuir isotherm, which describes the binding of molecules to surfaces with the conditions that (1) all binding sites have the same affinity for the peptide and (2) the peptide will form a monolayer on the surface but cannot accumulate to higher levels (Atkins (1994) Physical chemistry. Freeman, New York). The excellent fit of the Langmuir isotherm to the experimental data validates these conditions, and the constants obtained from this analysis were used for comparisons between peptides. As shown in FIG. 7A and summarized in Table 6, both the binding affinity (KA) and the monolayer concentration (NMax) of the various peptides increased with the number of DSS repeats per peptide. Additionally, several variant peptides were tested (FIGS. 7B, 7C, Table 6): a peptide containing a longer side chain at the first position (4ESS (SEQ ID NO:34)), peptides containing a more sterically hindered hydroxyl group at the second and third positions (4DTT (SEQ ID NO:36), 4NTT (SEQ ID NO:38), 4ETT (SEQ ID NO:37)), peptides lacking a charged group at the first position (4NSS (SEQ ID NO:35), 8ASS (SEQ ID NO:26)), and peptides lacking hydroxyl groups at the second and third positions (DAA-8 (SEQ ID NO:40), 8NAA (SEQ ID NO:41)).

[2] = Binding of labeled peptides to carious lesions in teeth (CLSM); parameters: species or system human; settings: labeled peptide, settings optimized per sample
Text: Sections of human teeth containing obvious carious lesions, which consist of demineralized enamel, were polished and exposed to 5(6)-carboxyfluorescein-labeled DSS peptides and variants. The sections were washed extensively and imaged by CLSM using blue laser illumination (A=488 nm) and a FITC emission filter, with microscope and camera settings adjusted for each sample to optimize the signal detected from each peptide. The images were examined to identify the relative levels of peptide binding in healthy versus carious tissue. […] Given their ability to remineralize at sites of enamel degradation, they can also be used to initiate remineralization at sites of enamel degradation such as caries or injury sites without causing inappropriate nucleation on healthy tissue surfaces.

[3] = Tissue specific binding of labeled peptides to sections of human teeth (CLSM); settings: 5(6)-carboxyfluorescein-labeled peptide, ten minutes; for level of binding (staining) to tooth surfaces: identical settings
Text: In order to investigate the tissue specificity of DSS peptide binding to tooth tissue, sections of human teeth were exposed to DSS peptides and variants, then imaged by CLSM. The peptides utilized for these experiments were 8DSS (SEQ ID NO:33), 8ASS (SEQ ID NO:26), 8DAA (SEQ ID NO:40), 8NAA (SEQ ID NO:41), 4DSS (SEQ ID NO:31), 4ESS (SEQ ID NO:34), 4NSS (SEQ ID NO:35), 4DTT (SEQ ID NO:36), 4ETT (SEQ ID NO:37), 4NTT (SEQ ID NO:38), and 6DSS (SEQ ID NO:32). Sagittal sections of human teeth extracted during normal clinical practice were polished and then incubated for ten minutes in a solution of the appropriate 5(6) carboxyfluorescein-labeled peptide (12.5pM) containing 10 mM NaCl and 50 mM HEPES, pH 7.0. Control samples were prepared without peptide. Samples were washed extensively after treatment and imaged by CLSM using blue laser illumination (A=488 nm) and a FITC emission filter, with identical camera and microscope settings for each sample. For each section, multiple scans were collected and assembled in an automated mode to generate panels of images representing an area of 13×13 mm, sufficient in most cases to encompass the whole section. […] Significant binding was also seen to the edges of the pulp cavity.

Row | Substance | Nmax (maximum monolayer surface concentration) [1] | KA (binding affinity for HA) [1] | effect of sequence variation on binding affinity (KA) relative to DSS peptide of same size ([1]; in words) | surface binding density relative to unphosphorylated peptide ([1]; in words) | strength of staining of carious lesions [2] | specificity of binding to carious lesions versus healthy enamel [2] | level of binding (staining) to tooth surfaces [3] | tissue pattern of binding in the tooth section [3] | effect of sequence variation on binding affinity (KA) relative to DSS peptide of same size ([1]; in words, listed as DAA8) | effect of sequence variation on binding affinity (KA) relative to DSS peptide of same size ([1]; in words, listed as DAA-8) | HA binding activity ([1]; in words)
1 | 4DS(P)S: phosphorylated DSS repeat peptide of the same size as 4DSS, SEQ ID NO:4 (D[pS]SD[pS]SD[pS]SD[pS]S) | 1.2 × 10^−7 ± 5 × 10^−9 mol/m^2 | 83,000 ± 9,000 M^−1 | did not lead to a significant change in binding affinity | large increase in the surface binding density | – | – | – | – | – | – | –
2 | 4NAA: printed once with SEQ ID NO:44; not among the synthesized peptides, probably a misprint (NAANAANAANAA; synthetic calcium-binding peptide 4NAA) | – | – | – | – | exceptionally strong staining of carious lesions | – | – | – | – | – | –
3 | 5DSS: peptide of five Asp-Ser-Ser repeats, SEQ ID NO:22 (DSSDSSDSSDSSDSS; synthetic calcium-binding peptide 5DSS, (DSS)-5) | 9.2 × 10^−8 ± 2 × 10^−9 mol/m^2 | 148,000 ± 14,000 M^−1 | – | – | – | – | – | – | – | – | –
4 | ASS ASS ASS ASS ASS ASS ASS ASS (ASSASSASSASSASSASSASSASS; synthetic calcium-binding peptide 8ASS) | – | – | significant loss of binding affinity | – | exceptionally strong staining of carious lesions | highly specific binding to carious lesions | lower levels of binding | – | – | – | –
5 | DAA DAA DAA DAA DAA DAA DAA DAA (DAADAADAADAADAADAADAADAA; synthetic calcium-binding peptide 8DAA) | 6.0 × 10^−8 ± 6 × 10^−9 mol/m^2 | 310,000 ± 74,000 M^−1 | – | – | exceptionally strong staining of carious lesions | highly specific binding to carious lesions | – | primary binding to the root tip dentin and cortical enamel | little observable effect | within experimental error of the KA for 8DSS | –
6 | DSS DSS (DSSDSS; synthetic calcium-binding peptide 2DSS) | 2 × 10^−8 ± 5 × 10^−9 mol/m^2 | 57,000 ± 24,000 M^−1 | – | – | – | – | – | – | – | – | –
7 | DSS DSS DSS DSS (DSSDSSDSSDSS; synthetic calcium-binding peptide 4DSS) | 5.8 × 10^−8 ± 6 × 10^−9 mol/m^2 | 94,000 ± 26,000 M^−1 | – | – | exceptionally strong staining of carious lesions | highly specific binding to carious lesions | – | bound primarily to the mantle dentin | – | – | –
8 | DTT DTT DTT DTT (DTTDTTDTTDTT; synthetic calcium-binding peptide 4DTT) | 1.3 × 10^−8 ± 1 × 10^−9 mol/m^2 | 161,000 ± 79,000 M^−1 | little observable effect | – | – | – | sharply reduced levels | binding patterns similar to those of 4DSS | – | – | –
9 | ESS ESS ESS ESS (ESSESSESSESS; synthetic calcium-binding peptide 4ESS) | 4.6 × 10^−8 ± 4 × 10^−9 mol/m^2 | 81,000 ± 18,000 M^−1 | – | – | exceptionally strong staining of carious lesions | highly specific binding to carious lesions | lower levels of binding | – | – | – | –
10 | ETT ETT ETT ETT (ETTETTETTETT; synthetic calcium-binding peptide 4ETT) | 8.8 × 10^−8 ± 9 × 10^−9 mol/m^2 | 79,000 ± 25,000 M^−1 | little observable effect | – | – | highly specific binding to carious lesions | sharply reduced levels | binding patterns similar to those of 4DSS | – | – | –
11 | NAANAANAANAANAANAANAANAA [8NAA] | – | – | – | – | – | highly specific binding to carious lesions | very little binding to any healthy tissue | did bind somewhat to a carious lesion | – | – | near-total loss of binding activity
12 | NSS NSS NSS NSS (NSSNSSNSSNSS; synthetic calcium-binding peptide 4NSS) | 3.0 × 10^−8 ± 1 × 10^−9 mol/m^2 | 16,000 ± 4,000 M^−1 | significant loss of binding affinity | – | – | highly specific binding to carious lesions | lower levels of binding | – | – | – | –
13 | NTT NTT NTT NTT (NTTNTTNTTNTT; synthetic calcium-binding peptide 4NTT) | 5.8 × 10^−8 ± 2 × 10^−8 mol/m^2 | 17,000 ± 7,000 M^−1 | significant loss of binding affinity | – | – | – | very low levels of binding to the healthy tooth tissue | strong binding to a fragment of periodontal bone | – | – | near-total loss of binding activity
